The record followed here is the supplement of paper PMC11150407.

Holding throughout (assay): area under dose-response viability curve (log dose) (AUC (arbitrary)); higher = less sensitive
Common to all, as to conditions: 72 h

Compound in one assay: CC(C)[C@H](C(=O)Nc1ccc(C(=O)NO)cc1)c1ccccc1 [AR-42]
Here is the method:
(§1)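 Primary AML blasts from patients (3q26 EVI1-high and other AML) were treated for 72 h with a dose series of each drug. Viability was measured with an ATP-based CellTiter-Glo assay. The area under the curve of the log-transformed dose-response data was computed in GraphPad Prism; a lower AUC means greater sensitivity.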

Compound in the next assay: CC[C@]1(O)C[C@H]2CN(CCc3c([nH]c4ccccc34)[C@@](C(=O)OC)(c3cc4c(cc3OC)N(C=O)[C@H]3[C@@](O)(C(=O)OC)[C@H](OC(C)=O)[C@]5(CC)C=CCN6CC[C@]43[C@@H]65)C2)C1 [Vincristine]
Here is the method:
as §1

Compound in the next assay: COc1cccc2c1C(=O)c1c(O)c3c(c(O)c1C2=O)C[C@@](O)(C(C)=O)C[C@@H]3O[C@H]1C[C@H](N)[C@H](O)[C@H](C)O1 [Daunorubicine]
Here is the method: as §1

Compound in the next assay: Nc1ccccc1NC(=O)c1ccc(CNC(=O)OCc2cccnc2)cc1 [Entinostat]
Here is the method:
as §1

Compound in another assay: O=C(/C=C/c1cccc(S(=O)(=O)Nc2ccccc2)c1)NO [Belinostat]
Here is the method:
as §1

Compound in another assay: CN(Cc1cnc2nc(N)nc(N)c2n1)c1ccc(C(=O)N[C@@H](CCC(=O)O)C(=O)O)cc1 [Methotrexate]
Here is the method: as §1

Regarding PR#028 (EVI1 status: EVI1Low), the “area under dose-response viability curve” value with AR-42 was determined as 164; with Vincristine, 116; in the assay with Daunorubicine, 142; with Entinostat, 198; with Belinostat, 182; with Methotrexate, 252.
As for PR#029 (EVI1 status: EVI1Low), the “area under dose-response viability curve” value with AR-42 worked out at 167; with Vincristine it was 46.3; with Daunorubicine it was 25.4; in the assay with Entinostat it was 213; with Belinostat, 221; with Methotrexate, 229.
In the case of PR#030 (EVI1 status: EVI1Low), the “area under dose-response viability curve” value in the assay with AR-42 came to 158; with Vincristine, 147; with Daunorubicine, 88.5; in the assay with Entinostat, 237; in the assay with Belinostat, 180; in the assay with Methotrexate it was 233.
With PR#031 (EVI1 status: EVI1Low), the “area under dose-response viability curve” value in the assay with AR-42 came out at 189; in the assay with Vincristine, 129; with Daunorubicine, 34.9; with Entinostat, 229; with Belinostat, 204; with Methotrexate, 233.
With PR#032 (EVI1 status: EVI1Low), the “area under dose-response viability curve” value came to 170 with AR-42; 92.1 with Vincristine; 58 with Daunorubicine; 144 with Entinostat; 148 with Belinostat; 258 with Methotrexate.
As for PR#033 (EVI1 status: EVI1Low), the “area under dose-response viability curve” value is 154 with AR-42; 147 in the assay with Vincristine; 36.2 in the assay with Daunorubicine; 183 with Entinostat; 178 with Belinostat; 226 with Methotrexate.
As for PR#034 (EVI1 status: EVI1Low), the “area under dose-response viability curve” value with AR-42 came to 142; with Vincristine it was 202; with Daunorubicine it was 192; with Entinostat, 195; with Belinostat, 160; with Methotrexate, 233.
PR#035 (EVI1 status: EVI1Low): the “area under dose-response viability curve” value with AR-42 is 145; with Vincristine, 119; with Daunorubicine, 64.4; in the assay with Entinostat it was 175; with Belinostat it was 168; with Methotrexate, 198.
Regarding PR#036 (EVI1 status: EVI1Low), the “area under dose-response viability curve” value in the assay with AR-42 was determined as 130; with Vincristine, 123; with Daunorubicine, 48.2; with Entinostat, 172; with Belinostat, 150; with Methotrexate, 251.
For the test system PR#037 (EVI1 status: EVI1Low), the “area under dose-response viability curve” value in the assay with AR-42 worked out at 126; in the assay with Vincristine, 113; with Daunorubicine, 83.7; with Entinostat, 106; with Belinostat, 127; with Methotrexate, 213.
As for PR#038 (EVI1 status: EVI1Low), the “area under dose-response viability curve” value stood at 141 in the assay with AR-42; 187 with Vincristine; 86 with Daunorubicine; 143 in the assay with Entinostat; 167 with Belinostat; 209 with Methotrexate.
As for PR#039 (EVI1 status: EVI1Low), the “area under dose-response viability curve” value with AR-42 is 96; in the assay with Vincristine, 95.7; in the assay with Daunorubicine, 24.5; in the assay with Entinostat, 125; with Belinostat it was 124; with Methotrexate, 201.
